Laboratory results from ChEMBL document CHEMBL6109125, “A New Protractor Potentiates Glucagon-Like Peptide 1 with Slow-Release Depot and Long-Term Action” (J Med Chem, 2025).
Calls of active or inactive are those of the source. The calls are words filed in the database; no cut-off is given here.

Columns and labels:
[1] = Stability in Sprague-Dawley rat plasma assessed as drug degradation by measuring half life measured after 96 hrs by RP-HPLC analysis; format: ADME, cell-free
[2] = biological target: T1, Glucagon-like peptide 1 receptor (Homo sapiens, UniProt P43220); assay: Agonist activity at GLP-1R (unknown origin) expressed in HEK293 cells co-expressing CRE-Luc assessed as increase in intracellular cAMP accumulation in presence of 2% HSA by luciferase based assay; format: functional, cell-based; conditions: read-out: EC50
T1 sequence (P43220 whole entry): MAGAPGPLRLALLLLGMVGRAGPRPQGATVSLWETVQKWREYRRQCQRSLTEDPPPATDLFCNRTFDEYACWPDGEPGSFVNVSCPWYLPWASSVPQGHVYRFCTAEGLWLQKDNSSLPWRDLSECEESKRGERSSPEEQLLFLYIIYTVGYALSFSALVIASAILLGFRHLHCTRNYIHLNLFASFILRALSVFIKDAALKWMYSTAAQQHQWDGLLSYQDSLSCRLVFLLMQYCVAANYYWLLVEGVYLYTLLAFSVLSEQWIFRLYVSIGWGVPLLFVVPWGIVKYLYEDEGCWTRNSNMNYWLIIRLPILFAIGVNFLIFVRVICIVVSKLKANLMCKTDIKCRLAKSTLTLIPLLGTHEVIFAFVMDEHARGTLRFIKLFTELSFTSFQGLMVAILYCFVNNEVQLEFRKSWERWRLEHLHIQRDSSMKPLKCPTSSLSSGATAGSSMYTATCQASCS

Mus musculus [3] = assay: Anti-hyperglycemic activity in well-fed type-2 diabetes db/db mouse assessed as blood glucose level at 100 nmol/kg, sc administered on every 48 hrs; format: functional
Mus musculus [4] = assay: Anti-hyperglycemic activity in 16 hr-fasted type-2 diabetes db/db mouse at 100 nmol/kg, sc pretreated for 0.5 hrs followed by glucose administration measured for 2 hrs by OGTT method; format: functional, organism-based; conditions: time 2.5 hrs
Mus musculus [5] = assay: Anti-hyperglycemic activity in type-2 diabetes db/db mouse assessed as reduction in food intake at 100 nmol/kg, sc measured for 48 hrs; format: functional, organism-based
[6] = Apparent volume of distribution in Sprague-Dawley rat at 1 mg/kg, iv measured up to 48 hrs by LC-MS/MS analysis; format: ADME, organism-based; conditions: in vivo, read-out: Vz
[7] = Stability in Sprague-Dawley rat plasma assessed as compound remaining measured after 96 hrs by RP-HPLC analysis; format: ADME, cell-free; conditions: read-out: Stability
Mus musculus [8] = assay: Anti-hyperglycemic activity in type-2 diabetes db/db mouse assessed as regulation of blood glucose level administered subcutaneously measured up to 96 hrs; format: functional, organism-based; conditions: dose 3-600 nmol/kg, route sc
Albumin = Albumin (Homo sapiens, UniProt P02768); assay: Binding affinity to human serum albumin immobilized on AR2G biosensor assessed as dissociation constant incubated for 3 mins by BLI assay; format: ADME
Chain of Albumin (P02768 whole entry): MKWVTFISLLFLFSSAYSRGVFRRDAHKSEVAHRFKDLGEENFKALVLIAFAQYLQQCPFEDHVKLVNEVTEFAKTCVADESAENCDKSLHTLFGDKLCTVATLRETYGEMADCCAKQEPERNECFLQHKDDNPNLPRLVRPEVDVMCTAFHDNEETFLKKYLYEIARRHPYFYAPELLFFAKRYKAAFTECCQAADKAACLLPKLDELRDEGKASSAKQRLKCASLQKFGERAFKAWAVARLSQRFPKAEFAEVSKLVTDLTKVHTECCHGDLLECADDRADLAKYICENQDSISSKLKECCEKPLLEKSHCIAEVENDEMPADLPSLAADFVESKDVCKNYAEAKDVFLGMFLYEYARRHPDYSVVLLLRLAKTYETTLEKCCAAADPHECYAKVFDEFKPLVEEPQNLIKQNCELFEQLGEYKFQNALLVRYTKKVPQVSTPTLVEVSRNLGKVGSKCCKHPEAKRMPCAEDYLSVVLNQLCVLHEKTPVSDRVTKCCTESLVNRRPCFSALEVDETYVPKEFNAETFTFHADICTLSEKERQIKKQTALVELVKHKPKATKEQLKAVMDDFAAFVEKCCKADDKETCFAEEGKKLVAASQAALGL

Dipeptidyl peptidase 4 [9] = biological target: T2, Dipeptidyl peptidase 4 (Rattus norvegicus, UniProt P14740); assay: Stability in Sprague-Dawley rat plasma assessed as DPP4-mediated drug degradation by measuring Lys(CBB) metabolite formation measured after 96 hrs by mass spectrometry; format: ADME, cell-free
T2 sequence (P14740 whole entry): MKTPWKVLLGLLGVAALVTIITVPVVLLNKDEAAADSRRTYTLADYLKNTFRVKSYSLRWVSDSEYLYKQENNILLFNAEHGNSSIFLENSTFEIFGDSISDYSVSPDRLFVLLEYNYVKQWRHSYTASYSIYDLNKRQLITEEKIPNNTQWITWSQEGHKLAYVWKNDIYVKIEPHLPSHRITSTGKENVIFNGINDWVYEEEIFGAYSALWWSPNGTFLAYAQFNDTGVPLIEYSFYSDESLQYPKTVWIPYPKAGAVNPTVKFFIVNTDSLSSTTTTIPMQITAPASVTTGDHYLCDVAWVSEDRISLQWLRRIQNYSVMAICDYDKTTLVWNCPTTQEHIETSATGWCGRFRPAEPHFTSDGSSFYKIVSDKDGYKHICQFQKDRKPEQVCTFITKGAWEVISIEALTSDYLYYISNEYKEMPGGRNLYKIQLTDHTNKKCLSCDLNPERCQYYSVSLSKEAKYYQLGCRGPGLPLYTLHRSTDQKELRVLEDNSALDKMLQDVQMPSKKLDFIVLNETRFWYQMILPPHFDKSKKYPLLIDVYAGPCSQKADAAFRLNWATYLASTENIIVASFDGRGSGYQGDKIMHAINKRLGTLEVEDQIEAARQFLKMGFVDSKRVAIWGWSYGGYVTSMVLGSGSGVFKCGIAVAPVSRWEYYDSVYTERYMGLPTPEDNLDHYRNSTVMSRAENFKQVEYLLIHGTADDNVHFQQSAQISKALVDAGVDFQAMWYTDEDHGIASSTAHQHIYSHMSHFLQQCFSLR

[10] = Half life in Sprague-Dawley rat at 1 mg/kg, sc measured up to 48 hrs by LC-MS/MS analysis; format: ADME, organism-based; conditions: in vivo
[11] = AUClast in BALB/c mouse at 0.5 mg/kg, iv measured up to 48 hrs by LC-MS/MS analysis; format: ADME, organism-based; conditions: in vivo
[12] = AUClast in BALB/c mouse at 0.5 mg/kg, sc measured up to 48 hrs by LC-MS/MS analysis; format: ADME, organism-based; conditions: in vivo
[13] = Tmax in BALB/c mouse at 0.5 mg/kg, sc measured up to 48 hrs by LC-MS/MS analysis; format: ADME, organism-based; conditions: in vivo
[14] = biological target: T1, Glucagon-like peptide 1 receptor; assay: Agonist activity at GLP-1R (unknown origin) expressed in HEK293 cells co-expressing CRE-Luc assessed as increase in intracellular cAMP accumulation in presence of 10% FBS by luciferase based assay; format: functional, cell-based; conditions: read-out: EC50
[15] = Tmax in Sprague-Dawley rat at 1 mg/kg, sc measured up to 48 hrs by LC-MS/MS analysis; format: ADME, organism-based; conditions: in vivo
[16] = Apparent volume of distribution in BALB/c mouse at 0.5 mg/kg, iv measured up to 48 hrs by LC-MS/MS analysis; format: ADME, organism-based; conditions: in vivo, read-out: Vz
[17] = Binding affinity to collagen type I (unknown origin) immobilized on AR2G biosensor assessed as dissociation constant incubated for 3 mins by BLI assay; set-up: species or system Homo sapiens
[18] = AUClast in Sprague-Dawley rat at 1 mg/kg, iv measured up to 48 hrs by LC-MS/MS analysis; format: ADME, organism-based; conditions: in vivo
Dipeptidyl peptidase 4 [19] = biological target: T2, Dipeptidyl peptidase 4; assay: Stability in Sprague-Dawley rat plasma assessed as DPP4-mediated drug degradation by measuring Lys(CBB)Gly metabolite formation measured after 96 hrs by mass spectrometry; format: ADME, cell-free
[20] = Clearance in Sprague-Dawley rat at 1 mg/kg, iv measured up to 48 hrs by LC-MS/MS analysis; format: ADME, organism-based; conditions: in vivo
[21] = Selectivity ratio of EC50 for agonist activity at GLP-1R (unknown origin) expressed in HEK293 cells co-expressing CRE-Luc assessed as increase in intracellular cAMP accumulation in presence of 2% HSA to EC50 for agonist activity at GLP-1R (unknown origin) expressed in HEK293 cells co-expressing CRE-Luc assessed as increase in intracellular cAMP accumulation; format: cell-based
[22] = MRT in Sprague-Dawley rat at 1 mg/kg, sc measured up to 48 hrs by LC-MS/MS analysis; format: ADME, organism-based; conditions: in vivo
[23] = Clearance in BALB/c mouse at 0.5 mg/kg, iv measured up to 48 hrs by LC-MS/MS analysis; format: ADME, organism-based; conditions: in vivo
Mus musculus [24] = assay: Anti-hyperglycemic activity in type-2 diabetes db/db mouse assessed as blood glucose level at 3 to 600 nmol/kg, sc measured up to 48 hrs; format: functional; conditions: dose 3-600 nmol/kg
Mus musculus [25] = assay: Anti-hyperglycemic activity in type-2 diabetes db/db mouse assessed as regulation of blood glucose level at 3 to 600 nmol/kg, sc measured up to 96 hrs; format: functional, organism-based
[26] = MRT in BALB/c mouse at 0.5 mg/kg, sc measured up to 48 hrs by LC-MS/MS analysis; format: ADME, organism-based; conditions: in vivo
[27] = biological target: T1, Glucagon-like peptide 1 receptor; assay: Agonist activity at GLP-1R (unknown origin) expressed in HEK293 cells co-expressing CRE-Luc assessed as increase in intracellular cAMP accumulation by luciferase based assay; format: functional, cell-based; conditions: read-out: EC50
[28] = AUClast in Sprague-Dawley rat at 1 mg/kg, sc measured up to 48 hrs by LC-MS/MS analysis; format: ADME, organism-based; conditions: in vivo
[29] = Half life in BALB/c mouse at 0.5 mg/kg, sc measured up to 48 hrs by LC-MS/MS analysis; format: ADME, organism-based; conditions: in vivo
Mus musculus [30] = assay: Anti-hyperglycemic activity in 16 hr-fasted type-2 diabetes db/db mouse assessed as homeostasis of blood glucose level at 100 nmol/kg, sc pretreated for 0.5 hrs followed by glucose administration measured for 2 hrs; format: functional, organism-based; conditions: time 2.5 hrs

half-life [1]: 24 h
EC50 [2]: 1.99 pM
Vd [6]: 0.15 L/kg
remaining at 96 h [7]: 40%
Kd (Albumin): 520000 pM
Drug metabolism (Dipeptidyl peptidase 4 [9]): metabolite_detected
half-life [10]: 32 h
AUC [11]: 111.886 h/µg/mL
AUC [12]: 123.884 h/µg/mL
Tmax [13]: 12 h
EC50 [14]: 0.21 pM
Tmax [15]: 12 h
Vd [16]: 0.056 L/kg
Kd [17]: 390000 pM
AUC [18]: 67.28 h/µg/mL
Drug metabolism (Dipeptidyl peptidase 4 [19]): metabolite_detected
clearance [20]: 0.25 mL/min/kg
MRT [22]: 18 h
clearance [23]: 0.0667 mL/min/kg
EC50 (Mus musculus [25]): 30 nmol/kg
MRT [26]: 18.1 h
EC50 [27]: 0.37 pM
AUC [28]: 28.81 h/µg/mL
half-life [29]: 32 h
Structure (SMILES): CCOc1ccc(Nc2ccc(/C(=C3C=C/C(=[N+](\CC)Cc4cccc(S(=O)(=O)[O-])c4)C=C\3C)c3ccc(N(CC)Cc4cccc(S(=O)(=O)NCCCCCC(=O)NCCOCCOCCOCCOCCOCCOCCOCCOCCC(=O)NCCCC[C@H](NC(=O)[C@@H](NC(=O)[C@H](CC(C)C)NC(=O)[C@H](Cc5c[nH]c6ccccc56)NC(=O)[C@H](C)NC(=O)[C@@H](NC(=O)[C@H](Cc5ccccc5)NC(=O)[C@H](CCC(=O)O)NC(=O)[C@H](CCCNC(=N)N)NC(=O)[C@H](C)NC(=O)[C@H](C)NC(=O)[C@H](CCC(N)=O)NC(=O)CNC(=O)[C@H](CCC(=O)O)NC(=O)[C@H](CC(C)C)NC(=O)[C@H](Cc5ccc(O)cc5)NC(=O)[C@H](CO)NC(=O)[C@H](CO)NC(=O)[C@@H](NC(=O)[C@H](CC(=O)O)NC(=O)[C@H](CO)NC(=O)[C@@H](NC(=O)[C@H](Cc5ccccc5)NC(=O)[C@@H](NC(=O)CNC(=O)[C@H](CCC(=O)O)NC(=O)CNC(=O)[C@@H](N)Cc5c[nH]cn5)[C@@H](C)O)[C@@H](C)O)C(C)C)[C@@H](C)CC)C(C)C)C(=O)NCC(=O)N[C@@H](CCCNC(=N)N)C(N)=O)c4)cc3C)cc2)cc1
Activity (Mus musculus [3]): <10 mM
Activity (Mus musculus [4]): Active
Activity (Mus musculus [5]): Active
Activity (Mus musculus [8]): Dose-dependent-effect
Ratio EC50 [21]: 5.38
Activity (Mus musculus [24]): <10 mM
Activity (Mus musculus [30]): Active
